Experimental data from ChEMBL document CHEMBL5154648, “Antitumor activity of novel POLA1-HDAC11 dual inhibitors” (Eur J Med Chem, 2022).
Calls of active or inactive are those of the source. The rule behind the calls is not given here.

What was measured:
[1] = target: T1, Histone deacetylase 11 (Homo sapiens) (UniProt Q96DB2); assay: Inhibition of HDAC11 in human MM473 cells at 0.1 to 0.4 uM assessed as increase in p21 level and measured by Western blot analysis; assay type: cell-based; settings: dose 0.1-0.4 µM
T1 sequence (whole entry): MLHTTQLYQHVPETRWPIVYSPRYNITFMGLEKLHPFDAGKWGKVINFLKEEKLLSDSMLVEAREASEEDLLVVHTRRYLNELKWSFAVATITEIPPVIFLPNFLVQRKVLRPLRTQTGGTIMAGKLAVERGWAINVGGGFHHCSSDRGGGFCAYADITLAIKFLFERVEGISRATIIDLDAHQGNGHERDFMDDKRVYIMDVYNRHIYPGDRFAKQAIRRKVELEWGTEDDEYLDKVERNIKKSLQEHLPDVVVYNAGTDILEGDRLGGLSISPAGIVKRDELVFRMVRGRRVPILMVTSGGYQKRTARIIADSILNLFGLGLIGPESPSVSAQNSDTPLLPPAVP

MM487 = assay: Induction of DNA damage in human MM487 cells at 0.1 to 0.4 uM assessed as increase in p-H2AX levels and measured by Western blot analysis; assay type: functional, cell-based; settings: dose 0.1-0.4 µM
[2] = Toxicity in mouse xenografted with human NCI-H460 cells assessed as body weight loss at 50 mg/kg, po qd administered 5 times a week for 3 to 4 weeks; assay type: organism-based; settings: in vivo, time 3-4 weeks
A2780 [3] = assay: Induction of cell cycle arrest in human A2780 cells assessed as accumulation of cells at G0/1 phase at 0.6 uM after 72 hrs by flow cytometry (reference value: 48.7%); assay type: functional
[4] = Toxicity in mouse xenografted with human H460-R9A cells assessed as body weight loss at 50 mg/kg, po qd administered 5 times a week for 3 to 4 weeks in combination with cisplatin at 4 mg/kg, iv administered every 7 days for 4 weeks; assay type: organism-based; settings: in vivo, time 3-4 weeks
NCI-H460 [5] = assay: Induction of cell cycle arrest in human NCI-H460 cells assessed as accumulation of cells at sub-G1 phase at 0.25 uM after 72 hrs by flow cytometry (reference value: 1.1%); assay type: functional
[6] = Antitumor activity against human H460-R9A cells xenografted in mouse assessed as tumor growth inhibition at 50 mg/kg, po qd administered 5 times a week for 3 to 4 weeks; assay type: functional; settings: time 3-4 weeks, read-out: TGI
MM473 [7] = assay: Induction of cell cycle arrest in human MM473-Luc cells assessed as accumulation of cells at G0/1 phase at 1.2 uM after 72 hrs by flow cytometry (reference value: 74.7%); assay type: functional
NCI-H460 [8] = assay: Down-regulation of POLA1 protein expression in human NCI-H460 cells at 0.25 uM measured by Western blot analysis; assay type: functional, cell-based
[9] = target: T2, Protein deacetylase HDAC6 (Homo sapiens) (UniProt Q9UBN7); assay: Inhibition of HDAC6 in human NCI-H460 cells at high-dose assessed as increase in alpha-tubulin acetylation measured by Western blot analysis; assay type: cell-based
T2 sequence (whole entry): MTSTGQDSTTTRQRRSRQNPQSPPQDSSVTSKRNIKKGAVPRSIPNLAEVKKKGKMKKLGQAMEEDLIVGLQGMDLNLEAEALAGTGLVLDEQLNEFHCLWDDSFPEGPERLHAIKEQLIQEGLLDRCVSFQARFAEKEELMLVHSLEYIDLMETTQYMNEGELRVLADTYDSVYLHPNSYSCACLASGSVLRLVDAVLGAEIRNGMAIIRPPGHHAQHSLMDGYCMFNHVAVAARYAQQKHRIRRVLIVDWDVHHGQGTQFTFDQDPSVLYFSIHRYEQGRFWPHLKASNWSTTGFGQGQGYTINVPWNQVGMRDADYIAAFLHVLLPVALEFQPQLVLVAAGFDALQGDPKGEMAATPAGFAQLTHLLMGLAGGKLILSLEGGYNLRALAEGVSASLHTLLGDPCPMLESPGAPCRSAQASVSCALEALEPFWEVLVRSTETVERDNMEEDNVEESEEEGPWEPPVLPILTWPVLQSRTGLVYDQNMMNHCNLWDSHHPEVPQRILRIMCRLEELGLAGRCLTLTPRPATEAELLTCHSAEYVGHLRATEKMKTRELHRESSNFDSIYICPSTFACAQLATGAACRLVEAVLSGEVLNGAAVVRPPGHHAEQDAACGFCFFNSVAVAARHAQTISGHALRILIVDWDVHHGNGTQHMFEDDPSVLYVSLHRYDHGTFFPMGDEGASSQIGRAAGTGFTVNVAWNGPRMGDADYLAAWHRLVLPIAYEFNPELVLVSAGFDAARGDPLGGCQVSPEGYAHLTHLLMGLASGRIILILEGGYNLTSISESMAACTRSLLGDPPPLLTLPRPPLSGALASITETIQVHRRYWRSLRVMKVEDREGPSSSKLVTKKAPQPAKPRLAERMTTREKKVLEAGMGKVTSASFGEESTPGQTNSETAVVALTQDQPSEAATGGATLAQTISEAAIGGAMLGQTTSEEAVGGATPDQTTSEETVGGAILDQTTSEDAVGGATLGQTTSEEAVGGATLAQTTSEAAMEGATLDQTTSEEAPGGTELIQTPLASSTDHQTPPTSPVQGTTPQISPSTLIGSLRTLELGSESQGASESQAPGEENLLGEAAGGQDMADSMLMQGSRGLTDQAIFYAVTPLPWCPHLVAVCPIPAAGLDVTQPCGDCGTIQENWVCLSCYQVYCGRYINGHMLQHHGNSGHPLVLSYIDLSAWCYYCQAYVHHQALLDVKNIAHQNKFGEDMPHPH

NCI-H460 [10] = assay: Down-regulation of POLA1 protein expression in human NCI-H460 cells at 0.26 uM measured by Western blot analysis; assay type: functional, cell-based
A2780 [11] = assay: Induction of cell cycle arrest in human A2780 cells assessed as accumulation of cells at G0/1 phase at 0.95 uM after 72 hrs by flow cytometry (reference value: 48.7%); assay type: functional
[12] = Antitumor activity against human MM487 cells xenografted in mouse assessed as tumor growth inhibition at 50 mg/kg, po bid administered 5 times a week for 3 weeks; assay type: functional; settings: MM487, 504 h, read-out: TGI
MM473 [13] = assay: Induction of cell cycle arrest in human MM473-Luc cells assessed as accumulation of cells at G0/1 phase at 1.4 uM after 72 hrs by flow cytometry (reference value: 74.7%); assay type: functional
H460-R9A = assay: Antiproliferative activity against human H460-R9A cells at 0.75 to 12 uM after 72 hrs by MTT assay; assay type: functional, cell-based; settings: dose 0.75-12 µM
[14] = Toxicity in mouse xenografted with human H460-R9A cells assessed as body weight loss at 20 mg/kg, po qd administered 5 times a week for 3 to 4 weeks; assay type: organism-based; settings: in vivo, time 3-4 weeks
[15] = Induction of cell cycle arrest in human H460-R9A cells assessed as accumulation of cells at G0/1 phase at 2.2 uM after 72 hrs by flow cytometry (reference value: 50.1%); assay type: functional
NCI-H460 [16] = assay: Induction of cell cycle arrest in human NCI-H460 cells assessed as accumulation of cells at G0/1 phase at 0.12 uM after 72 hrs by flow cytometry (reference value: 46.8%); assay type: functional

With `O=C(O)C=Cc1ccc(-c2ccc(OCC(=O)NO)c(C34CC5CC(CC(C5)C3)C4)c2)cc1` the inhibition [1] was “Active”, the Activity (MM487) was “Active” and the Activity [2] was 0%. The Activity (A2780 [3]) was 14.6%, the Activity [4] was 0% and the Activity (NCI-H460 [5]) was 12.1%. For the same compound, the inhibition in vivo at 50 mg/kg [6] was 38%, the Activity (MM473 [7]) was 23% and the Activity (NCI-H460 [8]) was “Active”.

With `CC(Oc1ccc(-c2ccc(C=CC(=O)O)cc2)cc1C12CC3CC(CC(C3)C1)C2)C(=O)NO` (stereo not drawn) the inhibition [9] was “Active”, the Activity (NCI-H460 [10]) was “Active” and the Activity (A2780 [11]) was 10.8%. For the same compound, the inhibition in vivo at 50 mg/kg [12] was 72% and the Activity (MM473 [13]) was 2.3%.

With `O=C(O)C=Cc1ccc(-c2ccc(O)c(C34CC5CC(CC(C5)C3)C4)c2)cc1` the Activity (H460-R9A) was “Active”, the Activity [14] was 0% and the Activity [15] was 22.8%. It also gave an Activity (NCI-H460 [16]) of 13.8%.
